From ChEMBL document CHEMBL3832544, “DailyMed|setid=fb8a2e5b-fd23-4977-81de-a95f4af168e2 | ONMEL- itraconazole tablet|Merz Pharmaceuticals, LLC”

Legend:
Assay type in all cases: ADME, organism-based
Parameters in all cases: dose 200 mg, route oral
[1] = (§1) The pharmacokinetic parameters of Itraconazole after single oral administration of 200 mg Itraconzole to 9 male and 9 female healthy subjects in fasting and in fed conditions; conditions: both, human, in vivo, dietary status Fed, dosed compound id 2, dosed compound name ITRACONAZOLE, gender male and female, regimen Single dose, tissue Plasma
Homo sapiens [2] = assay: as §1; conditions: in vivo, po, dietary status Fasted, dosed compound id 2, dosed compound name ITRACONAZOLE, gender male and female, regimen Single dose, tissue Plasma
[3] = (§2) The steady-state pharmacokinetics of itraconazole analyzed after multiple oral dosing of 16 healthy volunteers with 200 mg Itraconazole following a moderate-fat breakfast once daily for 14 days in an open-label study; conditions: human, in vivo, dietary status Fed with moderate-fat breakfast, dose 200 mg, dosed compound id 2, dosed compound name ITRACONAZOLE, gender male and female, regimen Multiple dose, route oral, tissue Plasma
Homo sapiens [4] = assay: as §2; conditions: in vivo, po, 336 h, dietary status Fed with moderate-fat breakfast, dosed compound id 2, dosed compound name ITRACONAZOLE, gender male and female, regimen Multiple dose, tissue Plasma

Cmax ([1]; po, 200 mg): 213 ng/mL
AUC ([1]; po, 200 mg, read-out: AUC(0-inf)): 3340 ng·h/mL
Tmax ([1]; dose 200 mg, route oral): 4.6 h
Tmax (Homo sapiens [2]; dose 200 mg): 2.9 h
AUC(0-inf) (Homo sapiens [2]): 2270 ng·h/mL
Cmax (Homo sapiens [2]): 162 ng/mL
Tmax ([3]; study dosing duration 1 day): 4 h
half-life ([3]; study dosing duration 14 day, read-out: t1/2 ss (converted)): 36.8 h
AUC(0-24) (Homo sapiens [4]; study dosing duration 1 day): 905.09 ng·h/mL
Cmax ss (Homo sapiens [4]; study dosing duration 1 day): 116.8 ng/mL
AUC(0-24) (Homo sapiens [4]; study dosing duration 14 day): 9046.81 ng·h/mL
Cmax ss (Homo sapiens [4]; study dosing duration 14 day): 658.1 ng/mL
Structure (SMILES): CCC(C)n1ncn(-c2ccc(N3CCN(c4ccc(OCC5COC(Cn6cncn6)(c6ccc(Cl)cc6Cl)O5)cc4)CC3)cc2)c1=O (configuration not stated) [ITRACONAZOLE]
